Key:
[1] = Fluorescence property test of probe with metal ion solution; details: Zn^2+ solution; CH3OH-H2O (v:v=1:1); FIG. 3
Experimental: (§1) The fluorescence property of the fluorescent probe compound according to the present disclosure was measured, including the following steps:
(§2) (1) Formulating a Probe Solution:
(§3) formulating a solution of 2-(7-(2,8-dimethyl quinoline-6-yl)-5,6,7,8-tetrahydro-1,8-naphthyridin-2-yl) phenol with a concentration of 100 μM in methanol, i.e. a probe solution, and stored at room temperature.
(§4) (2) Formulating Metal Ion Solutions: […]
(§5) the metal ions including: Mg^2+, Fe^2+, Cu^+, Cu^2+, Sn^4+, Co^2+, Mn^2+, K^+, Li^+, Ba^2+, Ca^2+, Cd^2+, Ni^2+, Fe^3+, Al^3+ and Zn^2+; and the respectively solutions of them were prepared from the corresponding hydrochloride salts thereof. Taking a certain amount of metal salts, dissolved in 10 mL of distilled water to formulate a 10-2 mol/L metal ion solution, and stored for later use.
(§6) (3) Fluorescence Property Test:
(§7) formulating solution to be tested: taking 0.5 mL of the formulated probe solution and 0.5 mL of the formulated metal ion solution, mixing with 4 mL solution of a CH3OH—H2O (v:v=1:1) to obtain a solution to be tested of the metal ion.
(§8) formulating blank solution: taking 0.5 mL of the formulated probe solution, mixed with solution of 2.5 mL water and 2 mL methanol.
(§9) analyzing the fluorescence intensity of solution to be tested by fluorescence spectrum, and the analysis result was shown in FIG. 3.

[2] = Fluorescence property test of probe with other metal ion solutions; details: Mg^2+, Fe^2+, Cu^+, Cu^2+, Sn^4+, Co^2+, Mn^2+, K^+, Li^+, Ba^2+, Ca^2+, Cd^2+, Ni^2+, Fe^3+ or Al^3+; CH3OH-H2O (v:v=1:1); FIG. 3
Experimental: as §1, §2, §3, §4, §5, §6, §7, §8, §9

[3] = Competitive experiment: Zn^2+ detection in presence of other metal ions; details: Zn^2+ solution (10 NM) plus other metal ion of the same concentration; FIG. 3
Experimental: In order to further verify the specificity of the zinc ion fluorescent probe compound to the zinc ion, a competitive experiment was conducted: adding the Zn^2+ solution (10 NM) into the probe solution formulated in step (1) together with a solution of any other one of the aforesaid metal ions of the same concentration; testing the effects of other competitive ions on the Zn^2+ selectivity of the zinc ion fluorescent probe compound respectively. The test results were shown in FIG. 3 (all test solution was uniformly labeled as “zinc ion fluorescent probe compound+M+Zn”).

[4] = Fluorescence titration with different concentrations of Zn^2+ (detection range and limit); details: Zn^2+ concentration 4×10^-6 M; FIG. 4
Experimental: Different concentrations of Zn^2+ were added into the probe solution formulated in step (1) to test the fluorescence property of the probe solution, so as to determine the detection range and detection limit for Zn^2+ of the fluorescent probe compound.

## Cc1ccc2cc(C3CCc4ccc(-c5ccccc5O)nc4N3)cc(C)c2n1 (stereo not shown) [fluorescent probe compound, 2-(7-(2,8-dimethylquinoline-6-yl)-5,6,7,8-tetrahydro-1,8-naphthyridin-2-yl) phenol]
[1]
  fluorescence intensity change (F/F0) of the solution to be tested: significant fluorescence decay
[2]
  fluorescence intensity change (F/F0) of the solution to be tested: changed slightly
[3]
  change of Zn^2+ detection before and after addition of other competitive ions: almost no change
[4]
  fluorescence intensity of the compound: dramatic decay
